Experimental data as given in ChEMBL document CHEMBL1126348, “1,3,4-trisubstituted pyrrolidinones as scaffolds for construction of peptidomimetic cholecystokinin antagonists” (Bioorg Med Chem Lett, 1992).
pIC50: −log10 of the molar value.

Columns and labels:
[1] = molecular target: T1, Cholecystokinin receptor type A (Rattus norvegicus, UniProt P30551); assay: Displacement of [125I]CCK-OP radioligand from Cholecystokinin type A receptor in rat pancreatic acinar membrane binding assay; type: cell membranes
T1 sequence (P30551 whole entry): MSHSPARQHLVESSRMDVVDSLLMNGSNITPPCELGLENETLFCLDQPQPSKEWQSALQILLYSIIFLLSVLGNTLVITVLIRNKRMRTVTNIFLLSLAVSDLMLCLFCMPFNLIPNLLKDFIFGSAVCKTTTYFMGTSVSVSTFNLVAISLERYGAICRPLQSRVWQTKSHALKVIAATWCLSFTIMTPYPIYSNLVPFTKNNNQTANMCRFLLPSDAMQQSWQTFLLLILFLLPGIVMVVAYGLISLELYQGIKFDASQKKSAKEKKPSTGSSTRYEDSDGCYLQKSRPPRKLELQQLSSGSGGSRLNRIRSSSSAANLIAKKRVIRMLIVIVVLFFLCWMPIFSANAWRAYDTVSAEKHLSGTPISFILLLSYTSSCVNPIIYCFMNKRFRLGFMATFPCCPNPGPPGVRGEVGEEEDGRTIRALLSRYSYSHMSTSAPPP

[2] = molecular target: T2, Cholecystokinin receptor type A (Cavia porcellus, UniProt Q63931); assay: Compound was tested for competitive blocking of guinea pig ileal smooth muscle strip contraction to cholecystokinin-8 (CCK-8) receptor; type: functional; conditions: read-out: pA2 (converted)
T2 sequence (Q63931 whole entry): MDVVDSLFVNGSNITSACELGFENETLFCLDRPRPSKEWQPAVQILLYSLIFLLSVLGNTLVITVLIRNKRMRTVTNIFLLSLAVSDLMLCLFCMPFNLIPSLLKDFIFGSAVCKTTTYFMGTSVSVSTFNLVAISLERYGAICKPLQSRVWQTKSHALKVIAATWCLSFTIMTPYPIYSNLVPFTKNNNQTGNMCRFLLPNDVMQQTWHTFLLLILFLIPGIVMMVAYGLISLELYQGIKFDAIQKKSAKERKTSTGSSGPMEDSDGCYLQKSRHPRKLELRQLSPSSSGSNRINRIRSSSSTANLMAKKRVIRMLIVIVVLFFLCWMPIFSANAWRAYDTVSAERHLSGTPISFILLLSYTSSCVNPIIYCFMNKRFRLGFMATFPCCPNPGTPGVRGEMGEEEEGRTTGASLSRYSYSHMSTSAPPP

[3] = molecular target: T3, Cholecystokinin receptor type A (Rattus norvegicus) (UniProt P30551); assay: Effective dose of compound causing reversal of cholecystokinin-8 (CCK-8) receptor induced delayed gastric emptying in the rat when administered intraperitoneally; type: functional; conditions: Stomach
T3 sequence (whole entry): T1 sequence (P30551 whole entry)

[4] = molecular target: T3, Cholecystokinin receptor type A (Rattus norvegicus); assay: Effective dose of compound causing reversal of cholecystokinin-8 (CCK-8) receptor induced delayed gastric emptying in the rat when administered orally; type: functional; conditions: Stomach

Compound `CCCCCN(CCCCC)C(=O)C(CCC(=O)O)NC(=O)c1ccc(Cl)c(Cl)c1` (centres undefined) [LORGLUMIDE] has a pIC50 [1] of 7.66.
Work on `O=C(N[C@H]1C(=O)N(c2ccccc2)C[C@@H]1C(=O)O)c1ccc2ccccc2c1` yielded a pIC50 [1] of 6.54.
`O=C(N[C@@H]1C(=O)N(c2ccccc2F)C[C@@H]1C(=O)O)c1ccc2ccccc2c1` gave a pIC50 [1] of 7.21.
With `O=C(N[C@@H]1C(=O)N(Cc2ccccc2)C[C@@H]1C(=O)O)c1cc2ccccc2[nH]1` the pIC50 [1] was 6.26.
`O=C(N[C@@H]1C(=O)N(Cc2ccccc2)C[C@@H]1C(=O)O)c1ccc2ccccc2c1` was tested, and the pIC50 [1] was 5.89.
`O=C(N[C@@H]1C(=O)N(c2ccccc2)C[C@@H]1C(=O)O)c1ccc2ccccc2c1` was tested, and the pIC50 [1] was 7.80, the Kb [2] was 6.31 nM and the ED50 [3] was 0.41 mg/kg. The ED50 [4] was 1.8 mg/kg.
In the case of `O=C(O)[C@H]1CN(c2ccccc2)C(=O)[C@H]1NS(=O)(=O)c1ccc2ccccc2c1`, the pIC50 [1] was < 6.00.
`O=C(N[C@H]1C(=O)N(c2ccccc2)C[C@@H]1C(=O)O)c1cc2ccccc2[nH]1` showed a pIC50 [1] of 6.44.
For `O=C(N[C@@H]1C(=O)N(c2ccccc2)C[C@@H]1C(=O)O)c1cc2ccccc2[nH]1`, the pIC50 [1] was 7.73.
In the case of `O=C(N[C@@H]1C(=O)N(c2ccccc2F)C[C@@H]1C(=O)O)c1cnc2ccccc2c1`, the pIC50 [1] was 6.77.
`CC(C)(C)OC(=O)[C@H]1CN(c2ccccc2)C(=O)[C@H]1NC(=O)c1ccc2ccccc2c1` was tested, and the pIC50 [1] was < 6.00.
